# Values of other authors as cited in publication PMC3534868 (Pharmaceutical biology, 2011).
# Where two headings read alike, the source gives them in different places.
# Assays:
# Col-2 = Col-2 cells; ref Zhang et al., 2004
# LU-1 (lung) = conditions: LU-1 cells; ref Zhang et al., 2004
# LNCaP (prostate) = conditions: LNCaP cells; ref Zhang et al., 2004
# HUVEC = HUVEC cells; ref Zhang et al., 2004
# hTERT = hTERT cells; ref Zhang et al., 2004
# [1] = test system: KB (human oral epidermoid carcinoma); conditions: KB cells; for KB IC50: ref Zhang et al., 2004
# [2] = test system: malaria parasite (chloroquine-sensitive and chloroquine-resistant strains); conditions: for in vitro activities against the malaria parasites: 2005
compound,measurement,setting,value
3″-Hydroxy-4″-methoxy-4″-dehyroxy-nyasol [SLA7037-K007],Col-2 IC50,Col-2,11.7 µg/mL
same,LU-1 IC50,LU-1 (lung),7.2 µg/mL
same,LNCaP IC50,LNCaP (prostate),11.6 µg/mL
same,HUVEC IC50,HUVEC,16.4 µg/mL
same,hTERT IC50,hTERT,0.2 µg/mL
same,KB IC50,[1],9.0 µg/mL
"COc1cc([C@H](O[C@@H]2O[C@H](CO)[C@@H](O)[C@H](O)[C@H]2O)[C@H](CO)Oc2c(OC)cc(CCCO)cc2OC)ccc1O [SLA7006-K008, Rourinoside]",W2 IC50,"P. falciparum W2; ref He et al., 2006",1.2 µg/mL
same,in vitro antimalarial activity,"[2]; ref He et al., 2006",in vitro-active
same,D6 IC50,"P. falciparum D6; ref He et al., 2006",2.1 µg/mL
same,KB ED50,"[1]; ref He et al., 2006",>20 µg/mL
"CC1(C)CC[C@]2(C(=O)O)CC[C@]3(C)C(=CC[C@@H]4[C@@]5(C)CC[C@H](O)C(C)(C)[C@@H]5CC[C@]43C)[C@@H]2C1 [SLA7018-K003, Oleanolic acid]",W2 IC50,"P. falciparum W2; ref He et al., 2005",2.335 ± 0.013 µg/mL
same,D6 IC50,"P. falciparum D6; ref He et al., 2005",2.116 ± 0.308 µg/mL
same,KB ED50,"[1]; ref He et al., 2005",21 µg/mL
"C[C@H]1[C@H](C)CC[C@]2(C(=O)O)CC[C@]3(C)C(=CC[C@@H]4[C@@]5(C)CC[C@@H](O)[C@@](C)(CO)[C@@H]5CC[C@]43C)[C@H]12 [SLA7018-K008, 3α,23-Dihydroxy-urs-12-en-28-oic acid]",W2 IC50,"P. falciparum W2; ref He et al., 2005",6.006 ± 2.581 µg/mL
same,D6 IC50,"P. falciparum D6; ref He et al., 2005",4.567 ± 0.702 µg/mL
same,KB ED50,"[1]; ref He et al., 2005",>20 µg/mL
"C[C@@H]1CC[C@@]2(OC1)O[C@H]1C[C@H]3[C@@H]4CCC5=CC(=O)CC[C@]5(C)[C@H]4C[C@@H](O)[C@]3(C)[C@@]1(O)[C@@H]2C [SLA7037-K001, Asparacosin A]",Col-2 IC50,Col-2,>20 µg/mL
same,LU-1 IC50,LU-1 (lung),>20 µg/mL
same,LNCaP IC50,LNCaP (prostate),>20 µg/mL
same,HUVEC IC50,HUVEC,>20 µg/mL
same,hTERT IC50,hTERT,>20 µg/mL
same,KB IC50,[1],10.7 µg/mL
"C[C@H]1CC[C@@]2(OC1)O[C@H]1C[C@H]3[C@@H]4CC[C@@H]5C[C@@H](O[C@@H]6O[C@H](CO[C@@H]7OC[C@H](O)[C@H](O)[C@H]7O)[C@@H](O[C@@H]7OC[C@H](O)[C@H](O)[C@H]7O)[C@H](O)[C@H]6O[C@@H]6O[C@H](CO)[C@@H](O)[C@H](O)[C@H]6O)CC[C@]5(C)[C@H]4CC[C@]3(C)[C@H]1[C@@H]2C [SLA7037-K003, Asparacoside]",Col-2 IC50,Col-2,5.4 µg/mL
same,LU-1 IC50,LU-1 (lung),4.2 µg/mL
same,LNCaP IC50,LNCaP (prostate),10.1 µg/mL
same,HUVEC IC50,HUVEC,4.1 µg/mL
same,hTERT IC50,hTERT,4.3 µg/mL
same,KB IC50,[1],4.8 µg/mL
"COc1cc(OCC=CC#Cc2ccc(O)cc2)ccc1O [SLA7037-K004, 3′-Methoxy-asparenydiol]",Col-2 IC50,Col-2,>20 µg/mL
same,LU-1 IC50,LU-1 (lung),19.7 µg/mL
same,LNCaP IC50,LNCaP (prostate),>20 µg/mL
same,HUVEC IC50,HUVEC,>20 µg/mL
same,hTERT IC50,hTERT,0.3 µg/mL
same,KB IC50,[1],12.0 µg/mL
"C=CC(/C=C\c1ccc(O)cc1)c1ccc(O)c(OC)c1 (stereo not drawn) [SLA7037-K006, 3″-Methoxy-nyasol]",Col-2 IC50,Col-2,6.3 µg/mL
same,LU-1 IC50,LU-1 (lung),4.5 µg/mL
same,LNCaP IC50,LNCaP (prostate),6.6 µg/mL
same,HUVEC IC50,HUVEC,6.7 µg/mL
same,hTERT IC50,hTERT,1.2 µg/mL
same,KB IC50,[1],9.0 µg/mL
"Oc1ccc(C#C/C=C/COc2ccc(O)cc2)cc1 [SLA7037-K010, Asparenydiol]",Col-2 IC50,Col-2,>20 µg/mL
same,LU-1 IC50,LU-1 (lung),19.8 µg/mL
same,LNCaP IC50,LNCaP (prostate),>20 µg/mL
same,HUVEC IC50,HUVEC,>20 µg/mL
same,hTERT IC50,hTERT,0.2 µg/mL
same,KB IC50,[1],2.4 µg/mL
"C=C(C)[C@@H]1CC[C@]2(C(=O)O)CC[C@]3(C)[C@H](CC[C@@H]4[C@@]5(C)CC[C@H](OC(=O)/C=C/c6ccc(O)c(O)c6)C(C)(C)[C@@H]5CC[C@]43C)[C@@H]12 [SLA7062-K001, Betulinic acid 3β-caffeate]",W2 IC50,"P. falciparum W2; ref Ma et al., 2008",0.607 µg/mL
same,in vitro antimalarial activity,"[2]; chloroquine-sensitive and chloroquine-resistant strains, ref Ma et al., 2008",in vitro-active
same,D6 IC50,"P. falciparum D6; ref Ma et al., 2008",0.87 µg/mL
same,KB ED50,"[1]; ref Ma et al., 2008",2.5 µg/mL
"C=C(C)[C@@H]1CC[C@]2(C(=O)O)CC[C@]3(C)[C@H](CC[C@@H]4[C@@]5(C)CC[C@H](O)C(C)(C)[C@@H]5CC[C@]43C)[C@@H]12 [SLA7062-K001a, Betulinic acid]",W2 IC50,"P. falciparum W2; ref Ma et al., 2008",3.776 µg/mL
same,D6 IC50,"P. falciparum D6; ref Ma et al., 2008",3.696 µg/mL
same,KB ED50,"[1]; ref Ma et al., 2008",>40 µg/mL
"C=C(C)[C@@H]1CC[C@]2(C(=O)O)CC[C@]3(C)[C@H](CC[C@@H]4[C@@]5(C)CC[C@H](OC(=O)/C=C/c6ccc(OC(C)=O)c(OC(C)=O)c6)C(C)(C)[C@@H]5CC[C@]43C)[C@@H]12 [SLA7062-K001b, Betulinic acid 3β-bisacetylcaffeate]",W2 IC50,"P. falciparum W2; ref Ma et al., 2008",0.443 µg/mL
same,D6 IC50,"P. falciparum D6; ref Ma et al., 2008",0.48 µg/mL
same,KB ED50,"[1]; ref Ma et al., 2008",2.07 µg/mL
Gongroneside A [SLA7530-K001],W2 IC50,"P. falciparum W2; ref Libman et al., 2008",2.02 µg/mL
same,in vitro antimalarial activity,"[2]; both strains of the malaria parasites, ref Libman et al., 2008",in vitro-active
same,D6 IC50,"P. falciparum D6; ref Libman et al., 2008",2.33 µg/mL
same,KB ED50,"[1]; ref Libman et al., 2008",>20 µg/mL
Naucleaorine [SLA7018-K006],W2 IC50,"P. falciparum W2; ref He et al., 2005",4.192 ± 0.008 µg/mL
same,in vitro activities against the malaria parasites,[2]; ref He et al.,showed in vitro activities
same,D6 IC50,"P. falciparum D6; ref He et al., 2005",3.61 ± 0.595 µg/mL
same,KB ED50,"[1]; ref He et al., 2005",20 µg/mL
Pinoresinol [SLA7062-K004],W2 IC50,"P. falciparum W2; ref Ma et al., 2008",3.15 µg/mL
same,D6 IC50,"P. falciparum D6; ref Ma et al., 2008",1.361 µg/mL
same,KB ED50,"[1]; ref Ma et al., 2008",>40 µg/mL
Rouremin [SLA7006-K005],W2 IC50,"P. falciparum W2; ref He et al., 2006",3.5 µg/mL
same,in vitro antimalarial activity,"[2]; ref He et al., 2006",in vitro-active
same,D6 IC50,"P. falciparum D6; ref He et al., 2006",4 µg/mL
same,KB ED50,"[1]; ref He et al., 2006",>20 µg/mL
epi-Methoxy-naucleaorine [SLA7018-K002],W2 IC50,"P. falciparum W2; ref He et al., 2005",6.979 ± 0.008 µg/mL
same,in vitro activities against the malaria parasites,[2]; ref He et al.,showed in vitro activities
same,D6 IC50,"P. falciparum D6; ref He et al., 2005",6.535 ± 0.151 µg/mL
same,KB ED50,"[1]; ref He et al., 2005",>20 µg/mL
